Source: patent publication US11696928B2, “Compounds and use thereof in the expansion of stem cells and/or progenitor cells” (UNIVERSITE DE MONTREAL, priority 2017, dated 2023)

How the values were obtained:
[1] = biological target: T1, AhR (Homo sapiens, UniProt P35869); experiment: Inhibition of AhR-mediated gene transcription (HEK-XRE 11.1 luciferase reporter, MeBIO induction); type: cell-based; conditions: HEK-XRE 11.1 cells, MeBIO 0.1 nM, luminescence after 24 hours; Table 1
T1 construct: One of the resultant clones was named HEK-XRE 11.1, and used in the reporter gene assays; endogenous in cells; host or cells: HEK-XRE 11.1 (HEK cells stably carrying the AhR-responsive luciferase reporter X4-4.27 and phRL-CMV)
T1 sequence (P35869 11-848): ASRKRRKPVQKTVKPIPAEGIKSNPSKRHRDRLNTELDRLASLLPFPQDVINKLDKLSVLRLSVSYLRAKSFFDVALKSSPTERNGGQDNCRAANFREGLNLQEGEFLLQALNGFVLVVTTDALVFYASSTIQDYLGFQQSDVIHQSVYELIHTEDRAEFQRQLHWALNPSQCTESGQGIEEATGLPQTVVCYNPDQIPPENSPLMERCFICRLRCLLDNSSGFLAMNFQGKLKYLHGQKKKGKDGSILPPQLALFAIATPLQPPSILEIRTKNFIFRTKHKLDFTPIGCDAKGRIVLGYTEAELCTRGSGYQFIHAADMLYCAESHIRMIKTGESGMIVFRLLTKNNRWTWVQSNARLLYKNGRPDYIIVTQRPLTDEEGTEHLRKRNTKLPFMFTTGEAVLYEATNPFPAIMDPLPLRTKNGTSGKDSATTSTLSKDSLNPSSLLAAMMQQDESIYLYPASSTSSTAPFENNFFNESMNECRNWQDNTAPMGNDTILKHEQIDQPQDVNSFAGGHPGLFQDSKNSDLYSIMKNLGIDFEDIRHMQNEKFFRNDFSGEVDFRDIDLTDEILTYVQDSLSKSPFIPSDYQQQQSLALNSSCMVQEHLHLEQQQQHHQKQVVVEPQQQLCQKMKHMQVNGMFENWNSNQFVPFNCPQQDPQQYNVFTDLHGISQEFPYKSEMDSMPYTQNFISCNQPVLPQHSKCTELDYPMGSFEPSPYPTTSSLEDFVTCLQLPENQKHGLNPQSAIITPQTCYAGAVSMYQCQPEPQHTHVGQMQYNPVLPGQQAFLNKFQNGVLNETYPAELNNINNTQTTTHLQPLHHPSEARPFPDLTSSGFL
Experimental: HEK cells line was transfected with an AhR-responsive firefly luciferase reporter gene X4-4.27 and the stable transfectants generated were again transfected with phRL-CMV (a Renilla luciferase expression vector; Promega) along with pBAsi-hU6 Pur DNA (a plasmid carrying the puromycin-resistant gene; TaKaRa, Shiga, Japan), and maintained in the presence of both hygromycin B and puromycin (2 mg/mL). One of the resultant clones was named HEK-XRE 11.1, and used in the reporter gene assays.
HEK-XRE 11.1 cells were plated in 384-well plates at a density of 25,000 cells in 50 uL volume per well. The induction of ARh pathway was done by addition of MeBIO at 0.1 nM concentration. ARh antagonist compounds were then added to seeded cells in serial dilutions (8 dilutions, 1:[…] down to 5 nM) in duplicate wells. Renilla expression was not used as internal control. On each plate, Compound 1001 and SR1 were added as dose control (8 dilutions, 1:3, 5 mM down to 2.5 nM for SR1 and 2 mM down to 1 nM for compound 1001). Luminescence activity was evaluated after 24 hours culture using Lumi-384-CellTiterGlo-Corning protocol. Dose-response curves were generated using nonlinear regression in Excel.

[2] = test system: Human CD34+ cord blood (CB) cells; experiment: CD34+ activity assessment (7-day expansion of pre-expanded CD34+ cells, flow cytometry); type: cell-based; conditions: concentration at which compound/vehicle ratio of CD34+ cell number is >= 1.5; 7 days, with 35 nM UM0128171; Table 1
Experimental: Human CD34+ cord blood (CB) cells were isolated from fresh units using RosetteSep™ 0034 pre-enrichment cocktail followed by CD34 positive selection using EasySep Kit™ (StemCell Technologies). The cells were then pre-expanded in bulk, by culturing at 37° C. for 6 days in HSC expansion media consisting of StemSpan ACF (StemCell Technologies) supplemented with 100 ng/mL Stem Cell Factor (SCF, Shenandoah), 100 ng/mL FMS-like Tyrosine Kinase 3 Ligand (FLT3L, Shenandoah), 50 ng/mL Thrombopoietin (TPO, Shenandoah), 2 mM GlutaMAX™ (Invitrogen), 10 μg/mL low density lipoproteins (LDL, StemCell Technologies), 10 μg/mL Ciprofloxacin and 35 nM UM0128171. […] Following the pre-expansion, cells were harvested, aliquoted and frozen until use.
For each activity assessment, CD34+ pre-expanded cells (approximately 2000 per well in a 384-well plate) were cultured in HSC expansion media, in the presence of 35 nM UM0128171. Compounds were serially diluted (1/2) in DMSO (10 dilutions per compound) and added to the cells in order to achieve a 1/1000 final dilution. StemRegenin1 (SR1) and/or Compound 1001 were included in all experiments as controls to monitor assay performance. The plate was incubated at 37° C. for 7 days in static conditions (i.e. no shaking and no addition of media). Flow cytometry analysis was performed at the end of the 7-day expansion. Cells were stained with PE-labeled anti-human CD45RA (BD Biosciences) and APC-labeled anti-human CD34 (BD Biosciences) and analyzed using Intellicyt IQue cytometer equipped with ForeCyt software. Gates were drawn around the populations of interest to obtain cell numbers and relative proportions. The EC1.5 value, which is the concentration at which the compound/vehicle ratio is greater or equal to 1.5, was calculated by plotting the CD34+ cell number against concentrations (log-scale) in a 4-PL curve and fitting the curve using IDBS XLfit (set model 251) in Microsoft Excel.

Row | SMILES | IC50 [1] [nM] | EC1.5 [2] [nM]
1 | Nc1c(C(=O)Nc2ccc(F)cc2)sc2ccc(C(F)(F)F)cc12 [Compound 1089] | < 50 | 100 to 1000
2 | Nc1c(C(=O)Nc2ccccc2)sc2ncc(C3CC3)cc12 [Compound 1091] | 50 to 500 | 100 to 1000
3 | Nc1c(C(=O)Nc2ccc(Oc3ccccc3)cc2)sc2ncc(C(F)(F)F)cc12 [Compound 1092] | 50 to 500 | 100 to 1000
4 | Nc1c(C(=O)Nc2cccc(Cl)c2)sc2ncc(C(F)(F)F)cc12 [Compound 1093] | < 50 | <100
5 | Cc1cccc(NC(=O)c2sc3ncc(C(F)(F)F)cc3c2N)c1 [Compound 1094] | < 50 | <100
6 | Nc1c(C(=O)Nc2ccc(Cl)c(Cl)c2)sc2ncc(C(F)(F)F)cc12 [Compound 1095] | 50 to 500 | 100 to 1000
7 | Cc1cc(NC(=O)c2sc3ncc(C(F)(F)F)cc3c2N)ccc1Cl [Compound 1096] | 50 to 500 | 1000 to 5000
8 | Nc1c(C(=O)Nc2ccc(Cl)c(O)c2)sc2ncc(C(F)(F)F)cc12 [Compound 1097] | > 500 | 1000 to 5000
9 | Nc1c(C(=O)Nc2ccc3c(c2)OCO3)sc2ncc(C(F)(F)F)cc12 [Compound 1098] | 50 to 500 | <100
10 | Nc1c(C(=O)Nc2ccc3c(c2)OCCO3)sc2ncc(C(F)(F)F)cc12 [Compound 1099] | 50 to 500 | <100
11 | Nc1c(C(=O)Nc2ccsc2)sc2ncc(C(F)(F)F)cc12 [Compound 1100] | < 50 | <100
12 | Cc1nc2cc(NC(=O)c3sc4ncc(C(F)(F)F)cc4c3N)ccc2s1 [Compound 1101] | < 50 | 100 to 1000
13 | Nc1c(C(=O)Nc2ccncn2)sc2ncc(C(F)(F)F)cc12 [Compound 1102] | 50 to 500 | >5000
14 | Nc1c(C(=O)Nc2ccccc2)sc2nc3c(cc12)CCCC3 [Compound 1104] | 50 to 500 | 100 to 1000
15 | COc1ccc(NC(=O)c2sc3nc4c(cc3c2N)CCCC4)cc1 [Compound 1105] | 50 to 500 | >5000
16 | Nc1c(C(=O)Nc2ccc(F)cc2)sc2nc3c(cc12)CCCC3 [Compound 1106] | 50 to 500 | 1000 to 5000
17 | Nc1c(C(=O)Nc2ncccn2)sc2ncc(C(F)(F)F)cc12 [Compound 1107] | < 50 | 1000 to 5000
18 | Nc1c(C(=O)Nc2cncnc2)sc2ncc(C(F)(F)F)cc12 [Compound 1109] | > 500 | >5000
19 | Nc1c(C(=O)Nc2ccc3[nH]ncc3c2)sc2ncc(C(F)(F)F)cc12 [Compound 1110] | 50 to 500 | >5000
20 | Nc1c(C(=O)Nc2ccccc2)sc2nc3c(cc12)CCCCC3 [Compound 1113] | 50 to 500 | 1000 to 5000
21 | Cc1cnc2sc(C(=O)Nc3ccc(F)cc3)c(N)c2c1 [Compound 1115] | < 50 | <100
22 | COc1ccc(NC(=O)c2sc3ccc(C(F)(F)F)nc3c2N)cc1 [Compound 1116] | 50 to 500 | 100 to 1000
23 | Nc1c(C(=O)Nc2ccc(F)cc2)sc2ccc(C(F)(F)F)nc12 [Compound 1117] | < 50 | 100 to 1000

Row | SMILES | IC50 [1] [nM] | EC1.5 [2] [nM]
24 | COc1ccc(NC(=O)c2sc3ccc(C)cc3c2N)cc1 [Compound 1119] | 50 to 500 | 100 to 1000
25 | Cc1ccc2sc(C(=O)Nc3ccc(F)cc3)c(N)c2c1 [Compound 1120] | < 50 | <100
26 | COc1cc(NC(=O)c2sc3ncc(C(F)(F)F)cc3c2N)ccc1F [Compound 1121] | 50 to 500 | 100 to 1000
27 | CCOc1ccc(NC(=O)c2sc3ncc(C(F)(F)F)cc3c2N)cc1 [Compound 1122] | < 50 | <100
28 | NC(=O)c1ccc(NC(=O)c2sc3ncc(C(F)(F)F)cc3c2N)cc1 [Compound 1123] | 50 to 500 | >5000
29 | CNC(=O)c1ccc(NC(=O)c2sc3ncc(C(F)(F)F)cc3c2N)cc1 [Compound 1124] | 50 to 500 | 100 to 1000
30 | COC(=O)c1ccc(NC(=O)c2sc3ncc(C(F)(F)F)cc3c2N)cc1 [Compound 1125] | 50 to 500 | 100 to 1000
31 | CN(C)c1ccc(NC(=O)c2sc3ncc(C(F)(F)F)cc3c2N)cc1 [Compound 1126] | 50 to 500 | 1000 to 5000
32 | Nc1c(C(=O)Nc2ccc(S(N)(=O)=O)cc2)sc2ncc(C(F)(F)F)cc12 [Compound 1127] | 50 to 500 | >5000
33 | COc1ccc(NC(=O)c2sc3ccc(C)nc3c2N)cc1 [Compound 1129] | 50 to 500 | 100 to 1000
34 | Cc1ccc2sc(C(=O)Nc3ccc(Cl)cc3)c(N)c2c1 [Compound 1130] | 50 to 500 | >5000
35 | Cc1ccc(NC(=O)c2sc3ccc(C)cc3c2N)cc1 [Compound 1131] | 50 to 500 | >5000
36 | Cc1ccc2sc(C(=O)Nc3ccc(Br)cc3)c(N)c2c1 [Compound 1132] | 50 to 500 | >5000
37 | COc1ccc(NC(=O)c2sc3ncc(C)cc3c2N)cc1Cl [Compound 1135] | < 50 | <100
38 | COc1ccc(NC(=O)c2sc3ccc(C(F)(F)F)cc3c2N)cc1Cl [Compound 1136] | < 50 | >5000
39 | Cc1cnc2sc(C(=O)Nc3ccc(C(F)(F)F)cc3)c(N)c2c1 [Compound 1137] | < 50 | <100
40 | Nc1c(C(=O)Nc2ccc(C(F)(F)F)cc2)sc2ccc(C(F)(F)F)cc12 [Compound 1138] | 50 to 500 | >5000
41 | Cc1cnc2sc(C(=O)Nc3cccc(Cl)c3)c(N)c2c1 [Compound 1139] | < 50 | 100 to 1000
42 | Cc1cccc(NC(=O)c2sc3ncc(C)cc3c2N)c1 [Compound 1140] | 50 to 500 | 100 to 1000
43 | Cc1cnc2sc(C(=O)Nc3ccc4c(c3)OCCO4)c(N)c2c1 [Compound 1141] | 50 to 500 | 100 to 1000
44 | CCOc1ccc(NC(=O)c2sc3ncc(C)cc3c2N)cc1 [Compound 1142] | < 50 | 100 to 1000
45 | CSc1ccc(NC(=O)c2sc3ncc(C)cc3c2N)cc1 [Compound 1143] | < 50 | <100
